Reference: a melting point compilation (Tetko et al.; mined from patent text by program, amines drawn as free bases though some values may be those of a salt)

melting point [°C] | SMILES
163 to 166 | COc1ccc2cc(C3CCN(C[C@H](O)COc4cccc5sc(-c6ncc(C)o6)cc45)CC3)ccc2c1
148 to 150 | COc1nc2ccccc2nc1NC(=S)N1CCN(c2ccccc2SC)CC1
151 | CCCC1=NN(c2ccccn2)C(=O)C1=CNc1ccccc1CC
171 to 173 | Brc1ccc2c(c1)sc1cc(Br)ccc12
74 | Cn1ccc2ccc(O)cc21
154 to 155 | O=C(CC1CCN(Cc2ccccc2)CC1)c1ccc(CO)cc1
88 to 90 | COc1cc(Nc2c(C#N)cnc3cc(OCCOCCN4CCNCC4)c(OC)cc23)c(Cl)cc1Cl
60 | COC(=O)Cc1ccc(OCCNC(=O)C2Cc3ccccc3N2S(=O)(=O)c2ccc(-c3cc(C(F)(F)F)ccc3Cl)cc2)cc1 (stereo unspecified)
74 to 76 | O=C(O)CCCc1c(Cl)cccc1-c1ccccc1
245 to 246 | CCc1c(-c2ccc(O)cc2)c2cc(C(C)=O)c3cc(OC)cc1n32
205 | COc1ccc(CNc2nc(CCCC(=O)O)nc3oc4c(c23)CCCC4)cc1Cl
56 to 58 | Cc1cc(N)nc(CCCCNC(=O)Cc2ccc3c(c2)OCO3)c1
118 to 120 | CS(=O)(=O)Nc1cc(C(c2cc(C#N)ccc2F)S(=O)(=O)c2ccc(Cl)cc2)c(Cl)cn1 (stereo unspecified)
190 to 192 | COC(C)=NS(=O)(=O)c1nc(-c2ccc(O)cc2)ns1
166 to 170 | Cc1ccc2c(c1)N(CC(=O)NC(C)(C)C)C(=O)C(Br)CC2CC1CCCCC1 (stereo unspecified)
127 to 128 | CCOP(=O)(/C=C/c1cn(-c2ccccc2)nc1OCc1ccc(OCc2nc(-c3cccc(C(N)=O)c3)oc2C)c(OC)c1)OCC
160 to 162 | COc1cc(OC)nc(NC(=O)NS(=O)(=O)c2ccccc2CCOC(C)=O)n1
178 to 180 | O=C1Cc2cccc(Sc3ccccc3Cl)c2N1
187 | COC(=O)Cn1c(C)cc(O)c([N+](=O)[O-])c1=O
158 to 160 | O=C(O)C1=CCCN1C(=O)CCSSCCC(=O)N1CCC=C1C(=O)O
< 60 | N#Cc1ccc(CNCCO)cc1

melting point [°C] | SMILES
210 | COc1cccc(-c2nc(C(=O)c3ccc(N)c(OC)c3)n3ccccc23)c1
343 | COc1cc2c(cc1[N+](=O)[O-])[nH]c(=O)c(=O)n2C
264 to 266 | O=S1(=O)N=C(n2ccnc2)Nc2cc(F)c(F)cc21
127 to 129 | O=S(=O)(NC1CCOCC1)c1ccc(Cl)cc1
45 to 47 | CCCCC1=Nc2sccc2C(=CN)N1CCC
36 to 41 | Cc1cccc([N+](=O)[O-])c1Br
108 to 110 | Clc1ccc(-c2ncc(C#Cc3ccccc3)s2)cc1
226 to 228 | Nc1ccc([N+](=O)[O-])cc1OCCCCOc1cc([N+](=O)[O-])ccc1N
78 | CC(C)(C)OC1C2C=CC1C1N=NC21 (stereo unspecified)
158 to 160 | COCCOc1cccc(-c2cncc(C#N)c2Nc2ccc3[nH]ccc3c2C)c1
205 to 208 | CC(C)N(CCN1C(=O)/C(=N/NC(N)=O)c2ccc(Cl)cc21)C(C)C
68 to 69 | COC(=O)CCc1cnoc1-c1ccc(OC)c(OC)c1
107 to 109 | CCOC(=O)C1=C(C)NC(CSCC2CO2)=C(C(=O)OCC)C1c1cccc([N+](=O)[O-])c1 (stereo unspecified)
289 to 291 | Cc1cc(-n2cc(-c3ccc(F)cc3)nc2C)cc2ccc(=O)[nH]c12
206 to 208 | COC(=O)c1ccc(Cn2nnc3ccc(NC(=O)CC4CCCC4)cc32)c(OC)c1
159 to 160 | Cc1cccc(COc2cccc(OCc3coc(-c4ccc(F)cc4)n3)c2)c1C(=O)O
68 to 72 | BrCc1ccccc1-c1cc(-c2ccccc2)on1
233 to 235 | Oc1cc2ncnc(Nc3cccc(Cl)c3)c2cc1O
177 to 178 | CC(C)(C)c1cc(SCc2cccc(-c3nnn[nH]3)c2)cc(C(C)(C)C)c1O
71 to 72 | O=C(NCCNC(c1ccccc1)(c1ccccc1)c1ccccc1)C(CCO)NC(c1ccccc1)(c1ccccc1)c1ccccc1 (stereo unspecified)
144 to 148 | COC(=O)C1=C(C)NC(C)=C(C(=O)OCOC(C)=O)C1c1cccc(Cl)c1Cl (stereo unspecified)

melting point [°C] | SMILES
181 to 183 | Nc1ncc(-c2ccccc2)nc1-c1ccc(O)cc1
184 to 186 | CN(C)c1nc2sc3c(NCCCN4CCCC4=O)ncnc3c2c2c1CC(C)(C)C2
137 to 140 | Cc1ccc([C@@H]2c3c(C)c(N4CCC(c5ccccc5)CC4)c(C)c(C)c3OC2(C)C)cc1
227 to 229 | Cc1cccc(C)c1NC(=O)NC1(c2ccccc2)CCCC1
175 to 176 | O=C(Cn1c(-c2ccc(Br)cc2)nc2cccnc21)N1CCCCC1
162 | CCn1c(C)nc2cc(C#N)ccc21
100 to 101 | Cc1nccn1-c1nc(-c2ccc(Cl)cc2)c(CCCCOS(C)(=O)=O)o1
84 to 86 | COCC1(O)CCN(c2c(F)cc([N+](=O)[O-])cc2F)CC1
65 to 67 | CC1CC=C(c2ccc(C(C)O)cc2)CC1 (stereo unspecified)
136 to 140 | Cc1cccc(NC(=O)NC2(C)N=C(N3CCN(C)CC3)c3cccc(C)c3N(C)C2=O)c1 (stereo unspecified)
124 to 126 | CCOC1CCN(c2nnc(-c3ccc(C)cc3)c(-c3ccc(C)cc3)n2)CC1
160 to 162 | COc1ccc(S(=O)(=O)Nc2ccccc2NC(=O)c2ccc(F)cc2Cl)cc1
165 to 167 | Cc1ccc(-c2coc(C=CC(=O)NC3CCC(CN(C)C4CCOCC4)CC3)c2)cc1 (stereo unspecified)
167 to 170 | COc1ccc2c(c1)CC(C)C1C2CCC2(C)C(=O)CCC12 (stereo unspecified)
40 to 40.5 | CCOC(=O)c1ccc(C(F)(F)F)c(Br)n1
168 to 169 | Cc1nc2cccc3n(CCCNS(=O)(=O)C(F)(F)F)c(=O)c1n23
83 | CCCc1cc2c(cc1C=NO)OCO2
177 to 178 | CCCCOc1cc(C(=O)O)cc(NC(C)=O)c1C(=O)c1ccccc1
85 to 87 | CC(C)(C)OC(=O)N1CCC[C@@H](Nc2ncc3c(n2)-c2ccccc2[C@@H](c2ccc(Cl)c(Cl)c2)C3)C1
235 to 237 | Cc1nc2n(c(=O)c1C(N)=O)C(C)CCC2=NNc1ccccc1 (stereo unspecified)
248 to 250 | Cc1cc(C)cc(Oc2c(CO)c(C)[nH]c(=O)c2I)c1

SMILES | melting point [°C]
CC(=O)Nc1c(C#N)c(C#N)nn1-c1c(Cl)cc(C(F)(F)F)cc1Cl | 208 to 209
ClCc1ncn2c1CN=C(c1ccccc1Cl)c1cc(Cl)ccc1-2 | 165
OCc1cccc(-c2csc(-c3cn([C@H]4CN5CCC4CC5)nn3)c2)c1 | 211
Fc1cccc2c1OC(CN1CC=C(c3c[nH]c4ccccc34)CC1)CO2 (stereo unspecified) | 174 to 177
CCOC(=O)Nc1cc(COC(=O)Oc2ccc(N(CCCl)CCCl)cc2)cc(Nc2c3ccccc3nc3ccccc23)c1 | 131 to 133
O=c1[nH]c2cc([N+](=O)[O-])ccc2c(=O)n1CCCN1CC=C(c2ccc(Cl)cc2)CC1 | 210 to 212
COc1ccc(C(O)CNCc2cccc(OC)c2C)cc1OC (stereo unspecified) | 135 to 136
COC12CC(CCOC(=O)c3[nH]c(C)cc3C)CN(C)C1Cc1cn(C)c3cccc2c13 (stereo unspecified) | 152 to 153
